Tests used:
[1] = target: T1, Protein-glutamine gamma-glutamyltransferase E (Homo sapiens) (UniProt Q08188); assay: Inactivation of activated human TG3 assessed as rate constant of enzyme inactivation using FRET- quenched A101 as substrate by fluorescence assay
T1 sequence (whole entry): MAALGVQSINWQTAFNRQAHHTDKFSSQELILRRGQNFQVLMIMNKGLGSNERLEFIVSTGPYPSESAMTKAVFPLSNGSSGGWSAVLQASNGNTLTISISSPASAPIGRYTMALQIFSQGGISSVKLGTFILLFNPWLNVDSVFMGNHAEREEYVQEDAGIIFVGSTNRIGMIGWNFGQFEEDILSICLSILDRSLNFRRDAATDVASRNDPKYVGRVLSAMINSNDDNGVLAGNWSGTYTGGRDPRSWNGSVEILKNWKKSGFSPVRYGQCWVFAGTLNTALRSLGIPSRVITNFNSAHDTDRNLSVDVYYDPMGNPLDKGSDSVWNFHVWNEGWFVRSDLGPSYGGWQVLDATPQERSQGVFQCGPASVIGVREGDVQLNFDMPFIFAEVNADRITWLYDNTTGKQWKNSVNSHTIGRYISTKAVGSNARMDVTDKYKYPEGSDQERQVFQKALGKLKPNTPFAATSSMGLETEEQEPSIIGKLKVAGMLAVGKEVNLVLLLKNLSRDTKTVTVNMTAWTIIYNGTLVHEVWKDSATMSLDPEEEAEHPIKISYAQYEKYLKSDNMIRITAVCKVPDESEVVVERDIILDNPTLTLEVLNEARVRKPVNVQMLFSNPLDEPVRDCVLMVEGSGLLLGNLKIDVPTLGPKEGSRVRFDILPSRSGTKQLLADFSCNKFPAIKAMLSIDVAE

[2] = target: T2, Protein-glutamine gamma-glutamyltransferase K (Homo sapiens) (UniProt P22735); assay: Inactivation of human TG1 using AL5 as substrate by colorimetric assay
T2 sequence (whole entry): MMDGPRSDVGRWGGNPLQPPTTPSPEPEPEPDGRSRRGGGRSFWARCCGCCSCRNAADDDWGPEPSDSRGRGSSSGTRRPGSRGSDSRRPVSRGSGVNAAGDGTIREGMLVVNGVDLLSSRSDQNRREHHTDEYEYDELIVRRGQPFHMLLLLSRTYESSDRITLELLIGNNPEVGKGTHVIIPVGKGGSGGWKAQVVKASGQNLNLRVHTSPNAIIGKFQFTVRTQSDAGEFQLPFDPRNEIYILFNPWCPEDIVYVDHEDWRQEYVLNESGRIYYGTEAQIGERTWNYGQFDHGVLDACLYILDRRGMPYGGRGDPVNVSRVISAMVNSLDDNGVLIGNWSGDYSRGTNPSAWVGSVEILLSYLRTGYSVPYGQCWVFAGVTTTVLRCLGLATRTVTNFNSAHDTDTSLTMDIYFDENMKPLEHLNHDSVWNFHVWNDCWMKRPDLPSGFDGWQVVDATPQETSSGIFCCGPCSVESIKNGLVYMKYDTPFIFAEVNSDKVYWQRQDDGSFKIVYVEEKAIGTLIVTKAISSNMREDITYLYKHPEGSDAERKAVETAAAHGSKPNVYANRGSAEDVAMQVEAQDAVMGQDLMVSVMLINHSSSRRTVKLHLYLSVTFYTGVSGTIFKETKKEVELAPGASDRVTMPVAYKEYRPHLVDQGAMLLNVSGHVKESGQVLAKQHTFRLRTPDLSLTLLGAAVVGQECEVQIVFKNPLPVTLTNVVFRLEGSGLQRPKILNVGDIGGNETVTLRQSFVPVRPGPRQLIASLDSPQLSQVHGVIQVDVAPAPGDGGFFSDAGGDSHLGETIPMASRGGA

[3] = target: T3, Protein-glutamine gamma-glutamyltransferase (Homo sapiens) (UniProt P21980); assay: Ratio of kinact to Ki for human TG2 by colorimetric assay
T3 sequence (whole entry): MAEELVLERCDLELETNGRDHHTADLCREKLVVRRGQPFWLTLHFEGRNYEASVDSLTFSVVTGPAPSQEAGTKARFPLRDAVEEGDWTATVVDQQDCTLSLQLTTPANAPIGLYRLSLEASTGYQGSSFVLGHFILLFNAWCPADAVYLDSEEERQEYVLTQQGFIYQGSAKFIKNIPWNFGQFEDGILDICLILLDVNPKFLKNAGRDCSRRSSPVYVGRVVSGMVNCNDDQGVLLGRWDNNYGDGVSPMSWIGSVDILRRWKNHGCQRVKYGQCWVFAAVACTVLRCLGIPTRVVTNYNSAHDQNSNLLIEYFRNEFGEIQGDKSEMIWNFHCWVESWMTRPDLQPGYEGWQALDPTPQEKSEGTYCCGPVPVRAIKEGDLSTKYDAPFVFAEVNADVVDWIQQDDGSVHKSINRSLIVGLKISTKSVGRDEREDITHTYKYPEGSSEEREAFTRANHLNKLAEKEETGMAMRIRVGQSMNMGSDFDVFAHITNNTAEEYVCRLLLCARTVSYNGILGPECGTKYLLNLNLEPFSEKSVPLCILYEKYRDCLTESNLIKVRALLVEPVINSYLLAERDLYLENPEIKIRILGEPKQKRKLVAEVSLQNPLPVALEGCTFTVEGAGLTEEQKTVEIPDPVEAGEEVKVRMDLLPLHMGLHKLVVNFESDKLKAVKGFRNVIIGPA

K [1]: 1.01 ×10⁻³ /min
K [2]: 78.9 ×10⁻³ /min
Ratio [3]: 76.4 ×10³ /M/min
Structure (SMILES): C=CC(=O)NCCCC[C@H](NC(=O)OCc1ccccc1)C(=O)NCCOCCOCCNS(=O)(=O)c1cccc2c(N(C)C)cccc12
